The results in this text go back to article PMC7587356, “High-Throughput Screening for Inhibitors of the SARS-CoV-2 Protease Using a FRET-Biosensor” (Molecules, 2020).

SMILES strings stand for the structures. Counter-ions that a name gives are not always drawn. Like-named read-outs stand apart in the source and are kept apart here.

The target in the assay is SARS-CoV-2 3CLpro (Severe acute respiratory syndrome coronavirus 2, UniProt P0DTD1). As to the kind of experiment: biochemical. In kind it is biochemical. Details: Replicate_1 / Replicate_2 / mean / mean (LOPAC_screen_w_protease): unit not given here. The following applies: for inhibition at 5 µM: 4 h.
Setting [1] is: LOPAC1280 primary screen with protease, 5 µM compound, mean of the two replicates.
Where [2] appears, read: LOPAC1280 primary screen with protease, 5 µM compound, replicate 1.
Where [3] appears, read: LOPAC1280 primary screen with protease, 5 µM compound, replicate 2.
Setting [4] is: LOPAC1280 primary screen with protease, 5 µM compound, mean of two replicates.
[5] abbreviates: sheet LOPAC_screen_w_protease, LOPAC1280 primary screen with protease, 5 µM compound, mean of the two replicates, read-out: mean.
The mark [6] stands for this setting: sheet LOPAC_screen_w_protease, LOPAC1280 primary screen with protease, 5 µM compound, replicate 1, read-out: Replicate_1.
Where [7] appears, read: sheet LOPAC_screen_w_protease, LOPAC1280 primary screen with protease, 5 µM compound, replicate 2, read-out: Replicate_2.
[8] abbreviates: LOPAC1280 primary screen with protease, 5 µM compound, replicate 1, read-out: Replicate_1 (LOPAC_screen_w_protease).
[9] abbreviates: LOPAC1280 primary screen with protease, 5 µM compound, replicate 2, read-out: Replicate_2 (LOPAC_screen_w_protease).
Where [10] appears, read: sheet LOPAC_screen_w_protease, primary screen with protease, mean of two replicates, read-out: mean.
[11] abbreviates: sheet LOPAC_screen_w_protease, primary screen with protease, replicate 1, read-out: Replicate_1.
[12] abbreviates: sheet LOPAC_screen_w_protease, primary screen with protease, replicate 2, read-out: Replicate_2.
Where [13] appears, read: sheet LOPAC_screen_w_protease, primary screen with protease, 5 µM, mean of two replicates.
Where [14] appears, read: sheet LOPAC_screen_w_protease, primary screen with protease, 5 µM, replicate 1.
The mark [15] stands for this setting: sheet LOPAC_screen_w_protease, primary screen with protease, 5 µM, replicate 2.
[16] abbreviates: sheet LOPAC_screen_w_protease, LOPAC1280 primary screen at 5 µM, with protease, replicate 1.
Setting [17] is: sheet LOPAC_screen_w_protease, LOPAC1280 primary screen at 5 µM, with protease, replicate 2.

For the compound `N#CC(=Cc1c[nH]c2ccccc12)C(=O)c1ccc(O)c(O)c1` [Tyrphostin AG 808], under setting [1], the “mean (LOPAC_screen_w_protease)” value was determined as 1.999. Moreover, the “Replicate_1 (LOPAC_screen_w_protease)” value under setting [2] was 2.979. Also, the “Replicate_2 (LOPAC_screen_w_protease)” value under setting [3] came to 1.0189.
As for `CN1CCCC1c1cccnc1.Cc1ccc(C(=O)OC(C(=O)O)C(OC(=O)c2ccc(C)cc2)C(=O)O)cc1` (stereo not drawn) [(+)-Nicotine (+)-di-p-toluoyl tartrate], the “Replicate_1 (LOPAC_screen_w_protease)” value is reported as 1.288, the “Replicate_2 (LOPAC_screen_w_protease)” value was found to be 2.109 and the “mean (LOPAC_screen_w_protease)” value is 1.698.
Regarding `C/C(O)=C(\C#N)C(=O)Nc1cc(Br)ccc1Br` [LFM-A13], the “mean (LOPAC_screen_w_protease)” value under setting [4] is given as 1.507. For the same compound, the “Replicate_1 (LOPAC_screen_w_protease)” value under setting [2] was -0.001982. Moreover, the “Replicate_2 (LOPAC_screen_w_protease)” value under setting [3] worked out at 3.017.
For `Nc1ccc2c3c(cccc13)C(=O)NC2=O` [4-Amino-1,8-naphthalimide], where the note is “sheet LOPAC_screen_w_protease, primary screen at 5 µM, mean of two replicates”, the “mean (LOPAC screen with protease)” value is reported as 6.555. In addition, under “sheet LOPAC_screen_w_protease, primary screen at 5 µM, replicate 1”, the “Replicate_1 (LOPAC screen with protease)” value was 8.124. Also, the “Replicate_2 (LOPAC screen with protease)” value (sheet LOPAC_screen_w_protease, primary screen at 5 µM, replicate 2) amounted to 4.986.
Turning to `CN1C[C@@H](NS(=O)(=O)N(C)C)C[C@@H]2c3cccc4c3c(cn4C)C[C@H]21` [Mesulergine hydrochloride], the inhibition at 5 µM reads like this: under setting [5], 5.36%; under setting [6], 4.85%; under setting [7], 5.86%.
Take `CC[N+](CC)(CC)CCOc1ccc(/C=C/c2ccccc2)cc1` [MG 624]: the inhibition at 5 µM reads like this: (sheet LOPAC_screen_w_protease, primary screen at 5 µM, mean of two replicates, read-out: mean (LOPAC screen with protease)) 11.8%; (sheet LOPAC_screen_w_protease, primary screen at 5 µM, replicate 1, read-out: Replicate_1 (LOPAC screen with protease)) 10.3%; (sheet LOPAC_screen_w_protease, primary screen at 5 µM, replicate 2, read-out: Replicate_2 (LOPAC screen with protease)) 13.3%.
In turn, `NC(N)=Nc1ccc2[nH]c3c(c2c1)C[C@@]1(O)[C@H]2Cc4ccc(O)c5c4[C@@]1(CCN2CC1CC1)[C@H]3O5.O=C(O)C(F)(F)F.O=C(O)C(F)(F)F` registered a mean (sheet LOPAC_screen_w_protease, LOPAC1280 primary screen with protease, 5 µM compound, mean of the two replicates) of 5.687. Also, under “sheet LOPAC_screen_w_protease, LOPAC1280 primary screen with protease, 5 µM compound, replicate 1”, the Replicate_1 was 7.859. The same compound came in with a Replicate_2 (sheet LOPAC_screen_w_protease, LOPAC1280 primary screen with protease, 5 µM compound, replicate 2) of 3.515.
Consider `COC(=O)C1=CCCN(C)C1` [Arecoline hydrobromide], for which the inhibition at 5 µM by setting is: under setting [8], 1.64%; under setting [9], 1.16%. Besides, the “mean (LOPAC_screen_w_protease)” value under setting [4] was 1.398.
`CC[N+](C)(C)c1cccc(O)c1` [Edrophonium chloride]: the inhibition at 5 µM by setting is: under setting [10], 2.25%; under setting [11], 5.19%; under setting [12], -0.704%.
In the case of `Cc1nc2n(c(=O)c1CCN1CCC(c3noc4cc(F)ccc34)CC1)CCCC2` [Risperidone], the inhibition at 5 µM (sheet LOPAC_screen_w_protease, LOPAC1280 at 5 µM, mean of two replicates, read-out: mean) worked out at 0.962%; the inhibition at 5 µM (sheet LOPAC_screen_w_protease, LOPAC1280 at 5 µM, replicate 1, read-out: Replicate_1) came out at 1.3%; the inhibition at 5 µM (sheet LOPAC_screen_w_protease, LOPAC1280 at 5 µM, replicate 2, read-out: Replicate_2) is 0.627%.
For the setting “sheet LOPAC_screen_w_protease, primary screen with protease, mean of two replicates”, `COc1ccc2c(c1)c(CC(=O)O)c(C)n2Cc1ccc(F)cc1` yielded a mean of 2.348. Moreover, for the setting “sheet LOPAC_screen_w_protease, primary screen with protease, replicate 1”, the Replicate_1 was determined as 3.38. This compound displayed a Replicate_2 (sheet LOPAC_screen_w_protease, primary screen with protease, replicate 2) of 1.3165.
On to `COc1ccc2c(c1O)-c1cccc3c1[C@@H](C2)N(C)CC3` [R(−)-apocodeine, reference compound], for which the “inhibition of 3CLpro in the primary screen” value (5 µM) was 6%.
Turning to `O=C(O)CP(=O)(O)O` [Phosphonoacetic acid], the inhibition at 5 µM is, setting by setting: (sheet LOPAC_screen_w_protease, LOPAC1280 primary screen at 5 µM, with protease, mean of the two replicates, read-out: mean) 0.854%; (sheet LOPAC_screen_w_protease, LOPAC1280 primary screen at 5 µM, with protease, replicate 1, read-out: Replicate_1) 0.755%; (sheet LOPAC_screen_w_protease, LOPAC1280 primary screen at 5 µM, with protease, replicate 2, read-out: Replicate_2) 0.954%.
For `CC(C)C[C@H](NC(=O)[C@H](O)[C@H](N)Cc1ccccc1)C(=O)O` [Epibestatin hydrochloride], the inhibition at 5 µM is 1.71% under setting [8] and 2.3% under setting [9]. Moreover, the “mean (LOPAC_screen_w_protease)” value under setting [1] turned out to be 2.008.
In the case of `CC(C)Cn1c(=O)n(C)c(=O)c2[nH]cnc21` [3-Isobutyl-1-methylxanthine], the “mean (LOPAC_screen_w_protease)” value under setting [1] was 2.03. Further, the “Replicate_1 (LOPAC_screen_w_protease)” value under setting [2] is -0.07674. Moreover, the “Replicate_2 (LOPAC_screen_w_protease)” value under setting [3] was found to be 4.138.
On the same counts, the results for `NCCCP(=O)(O)O` [3-Aminopropylphosphonic acid] are 1.904, 3.261 and 0.5459.
On to `Cc1cccc(C)c1N=C1NCCCS1` [Xylazine hydrochloride], for which the inhibition at 5 µM is, setting by setting: (read-out: Replicate_1) 0.366%; (read-out: Replicate_2) 2.25%; (read-out: mean) 1.31%.
Under setting [13], `CCCCCC(O)CCCC(=O)O.[Na]` (stereo not shown) [5-hydroxydecanoic acid sodium] yielded a mean of 0.3617. This compound showed a Replicate_1 under setting [14] of 2.03. The compound also displayed a Replicate_2 under setting [15] of -1.306.
On the same counts, the results for `Nc1nc(Nc2ccccc2)nc2c1ncn2[C@@H]1O[C@H](CO)[C@@H](O)[C@H]1O` [2-Phenylaminoadenosine] are -0.1756, -0.3497 and -0.001377.
Turning to `O=C1C=CC(=O)C=C1` [p-Benzoquinone], under setting [1], the “mean (LOPAC_screen_w_protease)” value is 2.118. For the same compound, the “Replicate_1 (LOPAC_screen_w_protease)” value under setting [2] worked out at 1.8862. Besides, under setting [3], the “Replicate_2 (LOPAC_screen_w_protease)” value was 2.35.
Under “sheet LOPAC_screen_w_protease, LOPAC1280 primary screen at 5 µM, with protease, mean of the two replicates”, `COC(=O)[C@H](NC(=O)c1cc(-c2ccccc2)nc2ccccc12)c1ccccc1` [SB 218795] registered a mean of 0.7338. The compound also showed a Replicate_1 under setting [16] of 2.781. Besides, under setting [17], the Replicate_2 is reported as -1.313.
Consider `CC1(C)CCC(NC(=O)[C@@H](N)CCC(=O)O)CC1` [CR 2249], for which the inhibition at 5 µM reads like this: under setting [5], 5.2%; under setting [6], 4.44%; under setting [7], 5.96%.
Consider `O=C(Nc1ccc([N+](=O)[O-])cc1Cl)c1cc(Cl)ccc1O` [Niclosamide], for which the inhibition at 5 µM (read-out: Replicate_1) is 5.53%, the inhibition at 5 µM (read-out: Replicate_2) is 4% and the inhibition at 5 µM (read-out: mean) stood at 4.76%.
Regarding `NC(=O)CN1CCCC1=O` [Piracetam], the inhibition at 5 µM came out at 3.49% (sheet LOPAC_screen_w_protease, primary screen of LOPAC1280 at 5 µM with protease, mean of the two replicates, read-out: mean); 5.61% (sheet LOPAC_screen_w_protease, primary screen of LOPAC1280 at 5 µM with protease, replicate 1, read-out: Replicate_1); 1.37% (sheet LOPAC_screen_w_protease, primary screen of LOPAC1280 at 5 µM with protease, replicate 2, read-out: Replicate_2).
As to `O=C(O)[C@H]1C[C@H](C(=O)O)N1` (relative stereo) [trans-Azetidine-2,4-dicarboxylic acid], the “mean (LOPAC_screen_w_protease)” value under setting [1] is on record as 2.097. Under setting [2], the “Replicate_1 (LOPAC_screen_w_protease)” value worked out at 1.338. Besides, under setting [3], the “Replicate_2 (LOPAC_screen_w_protease)” value was 2.855.
Consider `CNCCCC12CCC(c3ccccc31)c1ccccc12` [Maprotiline hydrochloride], for which the inhibition at 5 µM amounted to 4% (read-out: Replicate_1), 5.55% (read-out: Replicate_2) and 4.77% (read-out: mean).
Take `Cl.c1ccc([C@H]2CN3CCSC3=N2)cc1` [(-)-Tetramisole hydrochloride]: the Replicate_1 turned out to be 0.0709, the Replicate_2 is listed as 1.236 and the mean is on record as 0.6536.
Turning to `OCCN1CCN(CC/C=C2/c3ccccc3Sc3ccc(C(F)(F)F)cc32)CC1` [cis-(Z)-Flupenthixol dihydrochloride], the inhibition at 5 µM runs as follows: under setting [10], 2.17%; under setting [11], 2.7%; under setting [12], 1.63%.
As for `NC(=O)COc1c(F)cc(SCCNS(=O)(=O)c2ccccc2)cc1F`, the mean (sheet LOPAC_screen_w_protease, LOPAC1280 primary screen at 5 µM, with protease, mean of two replicates) is -1.413. For the same compound, the Replicate_1 under setting [16] was -1.082. For the same compound, the Replicate_2 under setting [17] is recorded as -1.744.
`N.N.N.N.N.N.N.N.N.N.N.N.N.N.[Cl-].[Cl-].[Cl-].[Cl-].[Cl-].[Cl-].[O-2].[O-2].[Ru+3].[Ru+3].[Ru+4]` [Ruthenium red]: under setting [1], the “mean (LOPAC_screen_w_protease)” value is recorded as 1.824. In addition, under setting [2], the “Replicate_1 (LOPAC_screen_w_protease)” value is recorded as 2.607. Moreover, the “Replicate_2 (LOPAC_screen_w_protease)” value under setting [3] is recorded as 1.042.
